The source of these data is US7928140B2, “Benzothiazole PI3 kinase modulators for cancer treatment” (Amgen Inc., priority 2007, dated 2011).

For one test, the target named is T1, PI3K α (Homo sapiens, UniProt P42336).
T1 construct: Full length p110 subunits of PI3K α, β and δ, N-terminally labeled with polyHis tag; polyHis (N); made in house; host or cells: Sf9 insect cells (baculovirus)
In words: In vitro PI3 kinase enzyme assay (alpha), ATP loss, bioluminescence.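 Note: purified p110α/p85 heterodimer acting on PtdIns(4,5)P2 at room temperature, remaining ATP read by luminescence, inhibition scaled between compound-free wells with and without enzyme.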 Type of test: biochemical. The note with it: read-out: PI3Kα ATP loss IC50.

The subject of test [1] is phosphorylation of Serine 473 in Akt, HCT 116 human colon carcinoma cells. Put plainly: Cell-based phospho-AKT Ser473 assay (MSD sandwich immunoassay, IGF-1 stimulated). The note with it: Homo sapiens. In a few lines: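 Akt Ser473 phosphorylation was measured by MSD electrochemiluminescent sandwich immunoassay in lysates of HCT116 cells (16,000 cells/well). Cells received a compound dilution series for 2 h at 37 °C before a 15 min IGF-1 (100 ng/ml) stimulus, with IC50 calculated from the dose-response.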

The next test addresses T2, PI3K β (Homo sapiens, UniProt P42338).
T2 construct: Full length p110 subunits of PI3K α, β and δ, N-terminally labeled with polyHis tag; polyHis (N); made in house; host or cells: Sf9 insect cells (baculovirus)
Put plainly: In vitro PI3 kinase enzyme assay (beta), ATP loss, bioluminescence.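 Note: purified p110β/p85 heterodimer with PtdIns(4,5)P2 as acceptor, incubated at room temperature, leftover ATP read by luminescence, inhibition scaled to compound-free wells with and without enzyme.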 Type of test: biochemical. The note with it: read-out: PI3Kβ ATP loss IC50.

Setting [2] is: HCT-116, HCT 116 cells, read-out: HCT 116 pAKT IC50.
The mark [3] stands for this setting: HCT-116, read-out: HCT 116 pAKT IC50.

SMILES strings stand for the structures. Read-outs that look alike come from different tables or passages of the source. Bounds are passed on as bounds.

T2 sequence (P42338 whole entry): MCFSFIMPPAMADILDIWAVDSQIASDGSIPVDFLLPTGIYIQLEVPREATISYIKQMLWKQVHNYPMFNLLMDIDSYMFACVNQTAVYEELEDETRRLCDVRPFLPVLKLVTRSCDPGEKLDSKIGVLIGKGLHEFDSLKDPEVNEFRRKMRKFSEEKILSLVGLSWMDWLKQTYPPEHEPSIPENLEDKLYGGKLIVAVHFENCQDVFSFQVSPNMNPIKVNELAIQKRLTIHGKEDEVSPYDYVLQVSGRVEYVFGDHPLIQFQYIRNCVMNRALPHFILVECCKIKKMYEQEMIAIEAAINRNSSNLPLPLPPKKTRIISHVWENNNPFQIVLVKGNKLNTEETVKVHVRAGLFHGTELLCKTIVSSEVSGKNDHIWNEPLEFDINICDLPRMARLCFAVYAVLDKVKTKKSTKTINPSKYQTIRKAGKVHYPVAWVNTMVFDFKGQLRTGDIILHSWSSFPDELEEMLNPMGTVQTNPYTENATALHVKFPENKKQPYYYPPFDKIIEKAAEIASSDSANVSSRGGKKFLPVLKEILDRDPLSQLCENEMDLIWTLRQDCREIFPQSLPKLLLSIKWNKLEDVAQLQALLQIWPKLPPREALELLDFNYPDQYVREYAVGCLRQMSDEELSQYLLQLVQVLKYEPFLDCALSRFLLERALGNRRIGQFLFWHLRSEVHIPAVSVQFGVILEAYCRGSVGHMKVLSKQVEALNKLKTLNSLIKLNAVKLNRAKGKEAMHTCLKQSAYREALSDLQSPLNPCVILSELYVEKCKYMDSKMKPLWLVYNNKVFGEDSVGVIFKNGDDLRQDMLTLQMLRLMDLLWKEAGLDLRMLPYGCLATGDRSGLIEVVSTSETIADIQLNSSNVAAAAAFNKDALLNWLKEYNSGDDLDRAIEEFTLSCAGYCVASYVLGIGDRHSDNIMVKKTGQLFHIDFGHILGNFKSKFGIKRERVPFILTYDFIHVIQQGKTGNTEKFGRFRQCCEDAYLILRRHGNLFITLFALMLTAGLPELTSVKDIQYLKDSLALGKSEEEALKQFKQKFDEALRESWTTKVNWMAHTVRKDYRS
T2 sequence (P27986 whole entry partner): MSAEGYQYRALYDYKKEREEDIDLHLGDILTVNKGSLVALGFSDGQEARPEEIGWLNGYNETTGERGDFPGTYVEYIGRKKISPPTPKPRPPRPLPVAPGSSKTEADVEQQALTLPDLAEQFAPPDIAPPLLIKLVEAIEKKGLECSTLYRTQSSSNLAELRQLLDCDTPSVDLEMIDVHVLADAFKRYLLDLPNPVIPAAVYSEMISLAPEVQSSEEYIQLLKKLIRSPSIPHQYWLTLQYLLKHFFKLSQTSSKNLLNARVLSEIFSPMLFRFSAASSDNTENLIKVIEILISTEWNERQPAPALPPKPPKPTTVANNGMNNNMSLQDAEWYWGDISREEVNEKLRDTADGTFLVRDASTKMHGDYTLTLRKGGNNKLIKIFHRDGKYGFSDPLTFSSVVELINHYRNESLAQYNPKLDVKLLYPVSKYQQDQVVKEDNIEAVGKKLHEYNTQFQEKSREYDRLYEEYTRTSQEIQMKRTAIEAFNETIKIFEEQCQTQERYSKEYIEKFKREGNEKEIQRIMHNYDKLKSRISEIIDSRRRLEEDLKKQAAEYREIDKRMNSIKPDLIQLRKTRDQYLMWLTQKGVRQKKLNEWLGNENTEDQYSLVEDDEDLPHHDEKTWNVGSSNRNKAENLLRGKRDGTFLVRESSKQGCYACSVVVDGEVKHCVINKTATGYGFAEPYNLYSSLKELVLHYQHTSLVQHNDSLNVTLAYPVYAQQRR
T1 sequence (P42336 whole entry, species assumed): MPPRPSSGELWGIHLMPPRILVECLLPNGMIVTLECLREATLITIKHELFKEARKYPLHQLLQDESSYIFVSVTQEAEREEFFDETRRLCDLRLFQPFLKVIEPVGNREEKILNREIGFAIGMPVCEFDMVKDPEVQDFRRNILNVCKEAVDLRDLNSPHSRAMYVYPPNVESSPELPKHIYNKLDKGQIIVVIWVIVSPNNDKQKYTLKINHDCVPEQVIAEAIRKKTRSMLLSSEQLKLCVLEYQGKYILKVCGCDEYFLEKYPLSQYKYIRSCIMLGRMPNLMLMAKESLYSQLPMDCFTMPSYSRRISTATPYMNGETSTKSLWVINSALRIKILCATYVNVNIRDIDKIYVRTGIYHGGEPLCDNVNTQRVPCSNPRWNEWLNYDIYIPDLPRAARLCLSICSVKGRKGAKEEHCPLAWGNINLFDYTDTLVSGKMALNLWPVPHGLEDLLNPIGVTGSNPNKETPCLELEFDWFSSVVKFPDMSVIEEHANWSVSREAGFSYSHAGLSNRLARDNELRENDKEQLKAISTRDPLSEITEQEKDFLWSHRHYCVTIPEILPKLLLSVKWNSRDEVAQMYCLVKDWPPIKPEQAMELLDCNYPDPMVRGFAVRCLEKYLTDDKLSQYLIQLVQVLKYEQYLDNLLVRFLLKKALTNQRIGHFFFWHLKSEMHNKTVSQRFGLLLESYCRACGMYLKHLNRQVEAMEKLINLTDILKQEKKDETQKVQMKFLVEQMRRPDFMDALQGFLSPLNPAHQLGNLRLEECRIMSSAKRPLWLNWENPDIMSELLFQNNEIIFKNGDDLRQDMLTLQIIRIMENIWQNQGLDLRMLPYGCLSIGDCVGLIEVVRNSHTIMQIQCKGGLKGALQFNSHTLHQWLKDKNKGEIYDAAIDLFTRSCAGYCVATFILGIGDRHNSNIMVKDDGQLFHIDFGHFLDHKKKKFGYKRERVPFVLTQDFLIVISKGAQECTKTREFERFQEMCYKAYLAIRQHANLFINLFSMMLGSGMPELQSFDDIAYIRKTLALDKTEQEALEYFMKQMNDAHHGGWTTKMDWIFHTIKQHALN
T1 sequence (P27986 whole entry partner, species assumed): as the sequence (P27986 whole entry partner) above
Protocol for PI3K α: Full length p110 subunits of PI3K α, β and δ, N-terminally labeled with polyHis tag, were co-expressed with p85 in baculovirus expression vectors in sf9 insect cells. P110/p85 heterodimers were purified by sequential Ni-NTA, Q-HP, and Superdex-100 chromatography. Purified α, β and δ isozymes were stored at −20° C. in 20 mM Tris, pH 8, 0.2M NaCl, 50% glycerol, 5 mM DTT, 2 mM Na cholate.
PI3K enzyme assays (alpha, beta, delta and gamma) were performed in 25 mL with the above final concentrations of components in white polypropylene plates (Costar catalogue #3355). Phosphatidyl inositol phosphoacceptor, PtdIns(4,5)P2 (eg. P4508) was obtained from Echelon Biosciences. The ATPase activity of the alpha and gamma isozymes was not greatly stimulated by PtdIns(4,5)P2 under these conditions and was therefore omitted from the assay of these isozymes. Test compounds were dissolved in DMSO and diluted with three-fold serial dilutions. The compound in DMSO (1 μL) was added per test well, and the inhibition relative to reactions containing no compound, with and without enzyme was determined. After assay incubation at RT, the reaction was stopped and residual ATP determined by addition of an equal volume of a commercial ATP bioluminescence kit (Perkin Elmer EasyLite) according to the manufacturer's instructions, and detected using an Analyst GT luminometer.

As a reminder, the IC50 is the midpoint of a concentration-inhibition curve. Take `O=S(=O)(Nc1cc(-c2ccc3ncoc3c2)cnc1Cl)c1ccc(F)cc1` [Example 326, N-(5-(1,3-benzoxazol-6-yl)-2-chloro-3-pyridinyl)-4-fluorobenzenesulfonamide]: the figures for the IC50 (on PI3K α; in test [1] (setting [2]); at PI3K β) were 0.0223 µM, above 5 µM and 0.0345 µM, respectively.
Consider `CN(C)c1cc(-c2ccc3nc(NC(=O)Oc4ccccc4)sc3c2)cnc1Cl` [Example 270, Phenyl 6-(6-chloro-5-(dimethylamino)pyridin-3-yl)benzo[d]thiazol-2-ylcarbamate], for which the figures for the IC50 (on PI3K α; in test [1] (setting [3]); at PI3K β) were 0.0346 µM, above 5 µM and 2.46 µM, respectively.
With `COc1ccncc1-c1ccc2nc(NC(C)=O)sc2c1` [Example 241, N-(6-(4-methoxypyridin-3-yl)benzo[d]thiazol-2-yl)acetamide], the half-inhibitory concentration (IC50) is 0.0735 µM on PI3K α, 0.816 µM in test [1] (setting [2]) and 10.7 µM on PI3K β.
The corresponding values for `CC(=O)Nc1nc2ccc(-c3cccc(N(C)S(=O)(=O)c4ccccc4)n3)cc2s1` [Example 75, N-(6-(6-(methyl(phenylsulfonyl)amino)-2-pyridinyl)-1,3-benzothiazol-2-yl)acetamide] are 0.0825 µM, 0.221 µM and 0.338 µM.
On the same counts, the results for `Nc1nc2ccc(-c3cnc(Cl)c(NS(=O)(=O)c4ccc(F)cc4F)c3)cc2s1` [Example 311, N-(5-(2-amino-1,3-benzothiazol-6-yl)-2-chloro-3-pyridinyl)-2,4-difluorobenzenesulfonamide] are 0.0171 µM, 0.222 µM and 0.0491 µM.
The corresponding values for `COc1ccc(-c2ccc3nc(NC(C)=O)sc3c2)cn1` [Example 242, N-(6-(6-methoxypyridin-3-yl)benzo[d]thiazol-2-yl)acetamide] are 0.0739 µM, 0.636 µM and above 40 µM.
Turning to `COCC(=O)Nc1nc2ccc(-c3cnc(Cl)c(N(C)C)c3)cc2s1` [Example 271, N-(6-(6-Chloro-5-(dimethylamino)pyridin-3-yl)benzo[d]thiazol-2-yl)-2-methoxyacetamide], the figures for the half-maximal inhibitory concentration (IC50) (at PI3K α; in test [1] (setting [2]); at PI3K β) were 0.0515 µM, 0.312 µM and 1.23 µM, respectively.
In the case of `COc1ccc(S(=O)(=O)Nc2cccc(-c3ccc4nc(NC(C)=O)sc4n3)c2)cc1` [Example 146, N-(5-(3-(4-methoxyphenylsulfonamido)phenyl)thiazolo[5,4-b]pyridin-2-yl)acetamide], the IC50 at PI3K α is 0.117 µM; in test [1] (setting [3]) it was 0.373 µM; at PI3K β it was 0.359 µM.
With `CC(=O)Nc1nc2ccc(-c3cccc(S(=O)(=O)c4ccc(F)cc4)n3)cc2s1` [Example 66, N-(6-(6-(4-Fluorophenylsulfonyl)pyridin-2-yl)benzo[d]thiazol-2-yl)acetamide], the 50% inhibitory concentration (IC50) worked out at 0.258 µM at PI3K α, 2.02 µM in test [1] (setting [2]) and 5.61 µM on PI3K β.
In the case of `CC(=O)Nc1nc2ccc(-c3cnc(Cl)c(O)c3)cc2s1` [Example 301, N-(6-(6-chloro-5-hydroxypyridin-3-yl)benzo[d]thiazol-2-yl)acetamide], the half-inhibitory concentration (IC50) at PI3K α was determined as 0.005 µM; in test [1] (setting [2]), 0.1 µM; at PI3K β, 0.0941 µM.
The corresponding values for `CN(C)c1cc(-c2ccc3nc(NC(=O)COc4ccccc4)sc3c2)cnc1Cl` [Example 272, N-(6-(6-chloro-5-(dimethylamino)pyridin-3-yl)benzo[d]thiazol-2-yl)-2-phenoxyacetamide] are 0.0589 µM, above 5 µM and 1.45 µM.
On the same counts, the results for `CC(=O)Nc1nc2ccc(-c3cncc(N(C)S(=O)(=O)c4ccccc4)c3)cc2s1` [Example 224, N-(6-(5-(N-methylphenylsulfonamido)pyridin-3-yl)benzo[d]thiazol-2-yl)acetamide] are 0.111 µM, 0.145 µM and 1.49 µM.
The corresponding values for `CC(=O)Nc1nc2ccc(-c3cncc(OCC#N)c3)cc2s1` [Example 288, N-(6-(5-(Cyanomethoxy)pyridin-3-yl)benzo[d]thiazol-2-yl)acetamide] are 0.0833 µM, 0.236 µM and 0.464 µM.
Take `CC(=O)Nc1nc2ccc(-c3cncc(N(C)S(=O)(=O)c4ccc(C(C)(C)C)cc4)c3)cc2s1` [Example 223, N-(6-(5-(4-tert-butyl-N-methylphenylsulfonamido)pyridin-3-yl)benzo[d]thiazol-2-yl)acetamide]: the half-maximal inhibitory concentration (IC50) at PI3K α amounted to 0.0535 µM; in test [1] (setting [2]), 0.417 µM; at PI3K β, 3.82 µM.
In the case of `CCc1ccc(S(=O)(=O)Nc2nccc(-c3ccc4nc(NC(C)=O)sc4c3)n2)cc1` [Example 84, N-(6-(2-(((4-ethylphenyl)sulfonyl)amino)-4-pyrimidinyl)-1,3-benzothiazol-2-yl)acetamide], the IC50 on PI3K α was 0.0218 µM; in test [1] (setting [2]) it was 0.174 µM; at PI3K β, 0.0793 µM.
The corresponding values for `CC(=O)Nc1nc2ccc(-c3cncc(NS(=O)(=O)c4ccc(C(C)O)cc4)c3)cc2s1` (stereo not drawn) [Example 259, N-(6-(5-(4-(1-hydroxyethyl)phenylsulfonamido)pyridin-3-yl)benzo[d]thiazol-2-yl)acetamide] are 0.0121 µM, 0.388 µM and 0.0322 µM.
`CC(=O)Nc1nc2ccc(-c3cnc(Cl)c(NS(=O)(=O)c4ccc(Cl)s4)c3)cc2s1` [Example 193, N-(6-(6-chloro-5-(2-chlorothiophene-5-sulfonamido)pyridin-3-yl)benzo[d]thiazol-2-yl)acetamide]: the half-inhibitory concentration (IC50) at PI3K α was 0.0068 µM; in test [1] (setting [2]) it was 0.0168 µM; at PI3K β, 0.0096 µM.
The corresponding values for `CC(=O)Nc1nc2ccc(-c3ccnc(N(C)S(=O)(=O)c4ccc(C(F)(F)F)cc4)n3)cc2s1` [Example 213, N-(6-(2-(N-methyl-4-(trifluoromethyl)phenylsulfonamido)pyrimidin-4-yl)benzo[d]thiazol-2-yl)acetamide] are 0.0913 µM, 0.0928 µM and 0.119 µM.
As to `CC(=O)Nc1nc2ccc(-c3cnc(Cl)c(NS(=O)(=O)c4cc(Cl)cc(Cl)c4)c3)cc2s1` [Example 175, N-(6-(6-chloro-5-(3,5-dichlorophenylsulfonamido)pyridin-3-yl)benzo[d]thiazol-2-yl)acetamide], the half-maximal inhibitory concentration (IC50) on PI3K α was 0.0032 µM; in test [1] (setting [2]), 0.0117 µM; at PI3K β it was 0.0054 µM.
With `CNc1nc2ccc(-c3cnc(Cl)c(NS(=O)(=O)c4c(Cl)cccc4Cl)c3)cc2s1` [Example 319, 2,6-dichloro-N-(2-chloro-5-(2-(methylamino)-1,3-benzothiazol-6-yl)-3-pyridinyl)benzenesulfonamide], the IC50 is 0.0092 µM at PI3K α, 0.474 µM in test [1] (setting [2]) and 0.0365 µM on PI3K β.
On the same counts, the results for `CC(=O)Nc1nc2ccc(-c3ccnc(OCCCc4ccccc4)n3)cc2s1` [Example 4, N-(6-(2-(3-phenylpropoxy)-4-pyrimidinyl)-1,3-benzothiazol-2-yl)acetamide] are 0.151 µM, 2.37 µM and 0.386 µM.
For `COc1ccc(Sc2nccc(-c3ccc4nc(NC(C)=O)sc4c3)n2)cc1` [Example 16, N-(6-(2-(4-Methoxyphenylthio)pyrimidin-4-yl)benzo[d]thiazol-2-yl)acetamide], the 50% inhibitory concentration (IC50) worked out at 0.0535 µM at PI3K α, 0.825 µM in test [1] (setting [2]) and 0.106 µM at PI3K β.
The corresponding values for `COc1cccc(COc2nccc(-c3ccc4nc(NC(C)=O)sc4c3)n2)c1` [Example 108, N-(6-(2-((3-methoxybenzyl)oxy)-4-pyrimidinyl)-1,3-benzothiazol-2-yl)acetamide] are 0.0967 µM, 0.682 µM and 0.292 µM.
On to `CC(=O)Nc1nc2ccc(-c3cnc(Cl)c(NS(=O)(=O)C4CCCCC4)c3)cc2s1` [Example 171, N-(6-(6-chloro-5-(cyclohexanesulfonamido)pyridin-3-yl)benzo[d]thiazol-2-yl)acetamide], for which the half-inhibitory concentration (IC50) at PI3K α turned out to be 0.0032 µM; in test [1] (setting [3]) it was 0.0433 µM; on PI3K β, 0.0263 µM.
Turning to `CNc1ncc(-c2ccc3nc(NC(C)=O)sc3c2)cc1NC(C)C` [Example 147, N-(6-(5-(isopropylamino)-6-(methylamino)pyridin-3-yl)benzo[d]thiazol-2-yl)acetamide], the values for the IC50 (on PI3K α; in test [1] (setting [2]); on PI3K β) were 0.149 µM, 0.44 µM and 5.68 µM, respectively.
In the case of `CC(=O)Nc1nc2ccc(-c3cnc(C)c(NS(=O)(=O)c4ccccc4F)c3)cc2s1` [Example 112, N-(6-(5-(((2-fluorophenyl)sulfonyl)amino)-6-methyl-3-pyridinyl)-1,3-benzothiazol-2-yl)acetamide], the 50% inhibitory concentration (IC50) was determined as 0.0055 µM at PI3K α, 0.0169 µM in test [1] (setting [2]) and 0.0091 µM on PI3K β.
On to `CC(=O)Nc1nc2ccc(-c3cncc(N(C)S(=O)(=O)c4ccc(Cl)c(Cl)c4)c3)cc2s1` [Example 221, N-(6-(5-(3,4-dichloro-N-methylphenylsulfonamido)pyridin-3-yl)benzo[d]thiazol-2-yl)acetamide], for which the IC50 at PI3K α was found to be 0.0792 µM; in test [1] (setting [2]), 0.32 µM; on PI3K β it was 2.1 µM.
The corresponding values for `CN(C)c1cc(-c2ccc3nc(N)sc3c2)cnc1Cl` [Example 274, 6-(6-Chloro-5-(dimethylamino)pyridin-3-yl)benzo[d]thiazol-2-amine] are 0.191 µM, 0.985 µM and 0.613 µM.
